Assay results: patent publication US9255100B2 (BAYER INTELLECTUAL PROPERTY GMBH, priority 2010, dated 2016)

Each compound was assayed against T1, N-terminally GST-tagged human full length recombinant Mps-1 kinase (Homo sapiens, UniProt P33981) (assay: Mps-1 kinase assay (TR-FRET)). Details: 10 μM ATP, 1 μM peptide substrate, 60 min at 22° C., read-out: Mps1 IC50.
T1 construct: N-terminally GST-tagged human full length recombinant Mps-1 kinase; purchased Invitrogen, Karslruhe, Germany PV4071
T1 sequence (P33981 1-857): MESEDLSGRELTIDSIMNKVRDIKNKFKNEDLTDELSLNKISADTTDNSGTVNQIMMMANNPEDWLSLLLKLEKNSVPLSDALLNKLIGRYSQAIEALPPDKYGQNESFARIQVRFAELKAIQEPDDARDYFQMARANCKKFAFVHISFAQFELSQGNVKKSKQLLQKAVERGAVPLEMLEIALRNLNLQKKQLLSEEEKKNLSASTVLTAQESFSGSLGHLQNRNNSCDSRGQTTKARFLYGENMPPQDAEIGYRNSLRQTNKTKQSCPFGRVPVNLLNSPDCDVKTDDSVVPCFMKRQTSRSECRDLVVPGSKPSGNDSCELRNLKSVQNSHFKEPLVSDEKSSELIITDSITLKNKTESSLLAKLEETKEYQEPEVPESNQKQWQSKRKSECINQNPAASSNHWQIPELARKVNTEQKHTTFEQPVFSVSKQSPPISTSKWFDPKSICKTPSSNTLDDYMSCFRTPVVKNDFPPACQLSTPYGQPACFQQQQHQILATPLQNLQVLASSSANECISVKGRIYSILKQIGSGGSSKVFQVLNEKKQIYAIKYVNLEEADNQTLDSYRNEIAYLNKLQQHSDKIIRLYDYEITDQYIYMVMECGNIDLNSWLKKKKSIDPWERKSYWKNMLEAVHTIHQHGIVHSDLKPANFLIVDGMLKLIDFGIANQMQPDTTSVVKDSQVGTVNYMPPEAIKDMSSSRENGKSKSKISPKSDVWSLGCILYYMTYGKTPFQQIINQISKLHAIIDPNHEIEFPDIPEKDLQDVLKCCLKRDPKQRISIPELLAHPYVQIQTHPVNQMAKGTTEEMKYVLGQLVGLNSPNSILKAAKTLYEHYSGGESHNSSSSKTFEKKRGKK
Assay type: biochemical
Procedure, shortened: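 Read-out: TR-FRET from Europium-labelled anti-phospho(Ser/Thr) antibody to SA-XLent after 1 h detection incubation at 22° C. Inhibition of kinase activity measured.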

Compound | IC50 [nM]
Cc1cc(-c2cnc3c(NCC4CC[S+]([O-])CC4)cc(Oc4ccc(F)cc4)nn23)ccc1C(=O)NC1CC1 (mixture of isomers) [Example 295B, N-cyclopropyl-4-[6-(4-fluorophenoxy)-8-({[(cis/trans)-1-oxidotetrahydro-2H-thiopyran-4-yl]methyl}amino)imidazo[1,2-b]pyridazin-3-yl]-2-methylbenzamide] | 0.2

Same assay, conditions: Mps1 IC50 [nM], 10 μM ATP, 1 μM peptide substrate, 60 min at 22° C.

Compound | IC50 [nM]
CC(C)CNc1cc(-c2cccc3cnccc23)nn2c(-c3ccc(C(=O)NC4CC4)cc3)cnc12 [Example 118, N-cyclopropyl-4-{6-(isoquinolin-5-yl)-8-[(2-methylpropyl)amino]imidazo[1,2-b]pyridazin-3-yl}benzamide] | 4.3
Cc1cc(-c2cnc3c(NCC(C)(C)O)cc(-c4ccoc4)nn23)ccc1C(=O)NC1CC1 [Example 157, N-cyclopropyl-4-{6-(furan-3-yl)-8-[(2-hydroxy-2-methylpropyl)amino]imidazo[1,2-b]pyridazin-3-yl}-2-methylbenzamide] | 12
Cc1cc(-c2cnc3c(NCC(C)(C)O)cc(Nc4cccnc4)nn23)ccc1C(=O)NC1CC1 [Example 359, N-cyclopropyl-4-{8-[(2-hydroxy-2-methylpropyl)amino]-6-(pyridin-3-ylamino)imidazo[1,2-b]pyridazin-3-yl}-2-methylbenzamide] | 1.2
CCNC(=O)c1ccc(-c2cnc3c(NCCOC)cc(Oc4ccc(OC)cc4F)nn23)cc1C [Example 608, N-ethyl-4-{6-(2-fluoro-4-methoxyphenoxy)-8-[(2-methoxyethyl)a-mino]imidazo[1,2-b]pyridazin-3-yl}-2-methylbenzamide] | 3.9
CC(C)CNc1cc(-c2ccc3c(c2)OCO3)nn2c(-c3ccc(C(=O)NC4CC4)cc3)cnc12 [Example 136, 4-{6-(1,3-Benzodioxol-5-yl)-8-[(2-methylpropyl)amino]imidazo[1,2-b]pyridazin-3-yl}-N-cyclopropylbenzamide] | 4
CSc1cc(NCCS(=O)(=O)N2CCOCC2)c2ncc(-c3ccc(C(=O)NC4CC4)c(C)c3)n2n1 [Example 231, N-cyclopropyl-2-methyl-4-[6-(methylsulfanyl)-8-{[2-(morpholin-4-ylsulfonyl)ethyl]amino}imidazo[1,2-b]pyridazin-3-yl]benzamide] | 14.3
Cc1cc(-c2cnc3c(NCCC(F)(F)F)cc(SCCN4CCOCC4)nn23)ccc1C(=O)NC1CC1 [Example 215, N-cyclopropyl-2-methyl-4-(6-{[2-(morpholin-4-yl)ethyl]sulfanyl}-8-[(3,3,3-trifluoropropyl)amino]imidazo[1,2-b]pyridazin-3-yl)benzamide] | 1.7
CC(C)CNc1cc(-c2ccccc2)nn2c(-c3ccc4c(N)n[nH]c4c3)cnc12 [Example 11, 3-(3-Amino-1H-indazol-6-yl)-N-isobutyl-6-phenylimidazo[1,2-b]pyridazin-8-amine] | 2.4
Cc1cc(-c2cnc3c(NCC(C)(C)O)cc(-c4cc(C(F)(F)F)nn4C)nn23)ccc1C(=O)NC1CC1 [Example 235, N-cyclopropyl-4-{8-[(2-hydroxy-2-methylpropyl)amino]-6-[1-methyl-3-(trifluoromethyl)-1H-pyrazol-5-yl]imidazo[1,2-b]pyridazin-3-yl}-2-methylbenzamide] | 6.2
Cc1cc(-c2cnc3c(NCC(C)(C)O)cc(Sc4nnc[nH]4)nn23)ccc1C(=O)NC1CC1 [Example 316, N-cyclopropyl-4-{8-[(2-hydroxy-2-methylpropyl)amino]-6-(4H-1,2,4-tri-azol-3-ylsulfanyl)imidazo [1,2-b]pyridazin-3-yl}-2-methylbenzamide] | 118
Cc1cc(-c2cnc3c(NCC(C)(C)O)cc(-c4ccccc4)nn23)ccc1C(=O)NC1CC1 [Example 12, N-cyclopropyl-4-{8-[(2-hydroxy-2-methylpropyl)amino]-6-phenylimidazo[1,2-b]pyridazin-3-yl}-2-methylbenzamide] | 3.2

Results, then the compound that gave them:

IC50 [nM] | Compound
0.3 | Cc1cc(-c2cnc3c(NCC4CCSCC4)cc(Oc4cccc(F)c4)nn23)ccc1C(=O)NC1CC1 [Example 281, N-cyclopropyl-4-{6-(3-fluorophenoxy)-8-[(tetrahydro-2H-thiopyran-4-ylmethyl)amino]imidazo[1,2-b]pyridazin-3-yl}-2-methylbenzamide]
< 1 | Cc1cc(-c2cnc3c(NCCC(F)(F)F)cc(-c4ccnn4C)nn23)ccc1C(=O)NC1CC1 [Example 10, N-cyclopropyl-2-methyl-4-{6-(1-methyl-1H-pyrazol-5-yl)-8-[(3,3,3-trifluoropropyl)amino]imidazo[1,2-b]pyridazin-3-yl}benzamide]
0.6 | Cc1cc(-c2cnc3c(NCCC(F)(F)F)cc(Sc4cccc(F)c4)nn23)ccc1C(=O)NC1CC1 [Example 209, N-cyclopropyl-4-{6-[(3-fluorophenyl)sulfanyl]-8-[(3,3,3-trifluoropropyl)amino]imidazo[1,2-b]pyridazin-3-yl}-2-methylbenzamide]
0.2 | Cc1cc(-c2cnc3c(NCC(C)(C)N)cc(Oc4cccc(F)c4)nn23)ccc1C(=O)NC1CC1 [Example 314, 4-{8-[(2-amino-2-methyl-propyl)amino]-6-(3-fluorophenoxy)imidazo[1,2-b]pyridazin-3-yl}-N-cyclopropyl-2-methyl-benzamide]
0.3 | Cc1cc(-c2cnc3c(NCC4CCC(F)(F)CC4)cc(Oc4cccc(F)c4)nn23)ccc1C(=O)NC1CC1 [Example 494, N-cyclopropyl-4-[8-{[(4,4-difluorocyclohexyl)methyl]amino}-6-(3-fluorophenoxy)imidazo[1,2-b]pyridazin-3-yl]-2-methylbenzamide]
< 1 | CC(C)CNc1cc(-c2cccc(C(=O)NC(C)C)c2)nn2c(-c3ccc(C(=O)NC4CC4)cc3)cnc12 [Example 134, 3-{3-[4-(Cyclopropylcarbamoyl)phenyl]-8-[(2-methylpropyl)amino]imidazo[1,2-b]pyridazin-6-yl}-N-(propan-2-yl) benzamide]
0.7 | C=Cc1cccc(Nc2cc(NCC(C)(C)O)c3ncc(-c4ccc(C(=O)NC5CC5)c(C)c4)n3n2)c1 [Example 409, N-cyclopropyl-4-{6-[(3-ethenylphenyl)amino]-8-[(2-hydroxy-2-methylpropyl)amino]imidazo[1,2-b]pyridazin-3-yl}-2-methylbenzamide]
0.2 | Cc1cc(-c2cnc3c(NCC(C)(C)O)cc(Oc4ccc(OC(C)C)cc4)nn23)ccc1C(=O)NC1CC1 [Example 256, N-cyclopropyl-4-{8-[(2-hydroxy-2-methylpropyl)amino]-6-(4-isopropoxyphenoxy)imidazo[1,2-b]pyridazin-3-yl}-2-methylbenzamide]
0.3 | Cc1ccc(F)cc1Sc1cc(NCCC(F)(F)F)c2ncc(-c3ccc(C(=O)NC4CC4)c(C)c3)n2n1 [Example 269, N-cyclopropyl-4-{6-[(5-fluoro-2-methylphenyl)sulfanyl]-8-[(3,3,3-trifluoropropyl)amino]imidazo[1,2-b]pyridazin-3-yl}-2-methylbenzamide]
< 1 | CNC(=O)c1ccc(-c2cnc3c(NCC4CCOCC4)cc(Oc4ccc(OC)c(F)c4)nn23)cc1C [Example 573, 4-{6-(3-fluoro-4-methoxyphenoxy)-8-[(tetrahydro-2H-pyran-4-ylmethyl)amino]imidazo[1,2-b]pyridazin-3-yl}-N,2-dimethylbenzamide]
0.8 | Cc1cc(-c2cnc3c(NCCC(F)(F)F)cc([S+]([O-])c4cccc(F)c4)nn23)ccc1C(=O)NC1CC1 (racemic) [Example 83B, (RS)—N-cyclopropyl-4-{6-[(3-fluorophenyl)sulfinyl]-8-[(3,3,3-trifluoropropyl)amino]imidazo[1,2-b]pyridazin-3-yl}-2-methylbenzamide]
0.3 | Cc1cc(-c2cnc3c(NCC(C)(C)O)cc(Sc4ccccc4F)nn23)ccc1C(=O)NC1CC1 [Example 70, N-cyclopropyl-4-{6-[(2-fluorophenyl)sulfanyl]-8-[(2-hydroxy-2-methylpropyl)amino]imidazo[1,2-b]pyridazin-3-yl}-2-methylbenzamide]
0.9 | Cc1cc(-c2cnc3c(NCC(C)(C)O)cc(Nc4cccc(C(C)C)c4)nn23)ccc1C(=O)NC1CC1 [Example 385, N-cyclopropyl-4-{8-[(2-hydroxy-2-methylpropyl)amino]-6-[(3-isopropylphenyl)amino]imidazo[1,2-b]pyridazin-3-yl}-2-methylbenzamide]
0.8 | Cc1cc(-c2cnc3c(NCC(C)(C)O)cc(Sc4ccc(F)c(F)c4)nn23)ccc1C(=O)NC1CC1 [Example 300, N-cyclopropyl-4-{6-[(3,4-difluorophenyl)sulfanyl]-8-[(2-hydroxy-2-methylpropyl)amino]imidazo[1,2-b]pyridazin-3-yl}-2-methylbenzamide]
